As a reminder, the Ki is the dissociation constant of the complex between target and ligand, obtained from inhibition or displacement. Lower therefore signals tighter binding.

The target in experiment [1] is Carbonic anhydrase 9 (Homo sapiens, UniProt Q16790).
Description: Inhibition of human carbonic anhydrase 9 pre-incubated for 15 mins by stopped flow carbon dioxide hydrase assay
Experiment [2] concerns the target Carbonic anhydrase 2 (Homo sapiens, UniProt P00918). Put plainly: Inhibition of human carbonic anhydrase 2 pre-incubated for 15 mins by stopped flow carbon dioxide hydrase assay.
For experiment [3], the target named is Carbonic anhydrase 1 (Homo sapiens, UniProt P00915). Put plainly: Inhibition of human carbonic anhydrase 1 pre-incubated for 15 mins by stopped flow carbon dioxide hydrase assay.
Carbonic anhydrase 1, sequence (P00915 whole entry): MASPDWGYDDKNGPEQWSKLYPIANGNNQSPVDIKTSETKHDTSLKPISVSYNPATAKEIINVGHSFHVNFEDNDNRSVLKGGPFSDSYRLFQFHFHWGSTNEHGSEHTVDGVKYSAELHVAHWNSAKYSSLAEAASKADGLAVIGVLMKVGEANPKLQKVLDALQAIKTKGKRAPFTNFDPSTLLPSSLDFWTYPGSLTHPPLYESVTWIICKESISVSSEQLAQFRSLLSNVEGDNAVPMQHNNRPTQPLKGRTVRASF
The species entered for experiment [4] is Oryctolagus cuniculus. Put plainly: Reduction in intraocular pressure in New Zealand albino rabbit model of hypertonic saline-induced ocular hypertension at 1 to 2% instilled immediately after hypertonic saline injection measured after 2 hrs post dose. It counts as functional, Eye.
The species entered for experiment [5] is Oryctolagus cuniculus. Briefly: Reduction in intraocular pressure in New Zealand albino rabbit model of hypertonic saline-induced ocular hypertension at 1 to 2% instilled immediately after hypertonic saline injection measured after 4 hrs post dose. It counts as functional. Particulars: Eye.

Molecules are shown by their SMILES. Activity calls are given as the source filed them. The calls are words filed in the database; no cut-off is given here.

In experiment [1], `COc1cccc(-n2cc(COc3ccc(S(N)(=O)=O)cc3)nn2)c1` gave a Ki of 0.0205 µM.
On to `NS(=O)(=O)c1ccc(-n2cc(CN(Cc3cn(-c4ccc(S(N)(=O)=O)cc4)nn3)c3ccccc3)nn2)cc1`, for which the inhibition constant (Ki) in experiment [2] was over 10 µM; in experiment [3], over 10 µM; in experiment [1], 0.0121 µM.
In experiment [1], `COc1ccc(OCc2cn(-c3ccc(S(N)(=O)=O)cc3)nn2)cc1` had a Ki of 0.0143 µM.
As to `NS(=O)(=O)c1ccc(-n2cc(COc3cccnc3)nn2)cc1`, the affinity in experiment [1], expressed as Ki, was 0.0172 µM.
For `NS(=O)(=O)c1ccc(-n2cc(COc3ccccc3)nn2)cc1`, in experiment [4], the Activity was 3 mmHg. In addition, the outcome in experiment [5] was Active. This molecule also returned a Ki in experiment [1] of 0.0021 µM.
Regarding `NS(=O)(=O)c1ccc(OCc2cn(-c3ccc(F)cc3)nn2)cc1`, the affinity in experiment [1], expressed as Ki, was 0.0162 µM.
Molecule `NS(=O)(=O)c1ccc(-n2cc(-c3ccccc3)nn2)cc1` had a Ki in experiment [3] of 0.342 µM.
In experiment [4], `NS(=O)(=O)c1ccc(-n2cc(CNc3ccccc3)nn2)cc1` returned an Activity of 2 mmHg. Further, in experiment [1], the affinity, expressed as Ki, was 0.0022 µM.
Molecule `Cc1cccc(OCc2cn(-c3ccc(S(N)(=O)=O)cc3)nn2)c1` displayed a Ki in experiment [1] of 0.0023 µM.
`NS(=O)(=O)c1ccc(OCc2cn(-c3ccc(O)cc3)nn2)cc1` displayed an inhibition constant (Ki) in experiment [1] of 0.0187 µM.
Consider `NS(=O)(=O)c1ccc(OCc2cn(-c3ccc(C(F)(F)F)cc3)nn2)cc1`, for which the Ki was over 10 µM in experiment [3] and 0.0236 µM in experiment [1].
Molecule `COc1cccc(OCc2cn(-c3ccc(S(N)(=O)=O)cc3)nn2)c1` yielded a Ki in experiment [1] of 0.0093 µM.
For `NS(=O)(=O)c1ccc(-n2cc(CSc3ccccc3)nn2)cc1`, in experiment [1], the inhibition constant Ki worked out at 0.0024 µM.
Still for that read-out and setting: the same measure for `NS(=O)(=O)c1ccc(OCc2cn(-c3ccccc3)nn2)cc1`: 0.0026 µM.

The values above are taken from ChEMBL document CHEMBL3860109, “Benzenesulfonamides Incorporating Flexible Triazole Moieties Are Highly Effective Carbonic Anhydrase Inhibitors: Synthesis and Kinetic, Crystallographic, Computational, and Intraocular Pressure Lowering Investigations” (J Med Chem, 2016).
